Test results: US20260008762A1, “CANNABINOID ACIDS CRYSTALLINE FORMS, METHODS OF PRODUCING, AND USES THEREOF” (priority 2022, published 2026)

Experiments:
[1] = Thermogravimetric analysis (TGA) of crystalline form; type: physicochemical; conditions: crystalline single component form, dry nitrogen flow
Description: Thermal gravimetric analysis (TGA) was carried out using a TA instruments 2910 under dry nitrogen flow (30 mL/min for both the furnace and the balance). For a typical experiment, 5-10 mg of solid material was placed into the pan and was allowed to equilibrate at room temperature under nitrogen for approximately 5 minutes prior to the start of each experiment to ensure a stable baseline. A heating rate of 1° C./min or 5° C./min was utilized.

[2] = biological target: SARS-CoV-2 spike protein S1 C-terminal domain (Severe acute respiratory syndrome coronavirus 2, UniProt P0DTC2); conditions: can inhibit the virus' ability to enter new host cells; cited from earlier work
[3] = compared with THCa under similar conditions; cited from earlier work

Structure (SMILES) | TGA degradation onset [1] | binding to SARS-CoV-2 spike protein S1 C-terminal domain [2] | rate of decarboxylation [3]
C=C(C)[C@@H]1CCC(C)=C[C@H]1c1c(O)cc(CCCCC)c(C(=O)O)c1O [CBDa, cannabidiolic acid] | about 150 °C | found to bind to the SARS-CoV-2 spike protein S1 C-terminal domain | decarboxylates at a faster rate than THCa
CCCCCc1cc(O)c(C/C=C(\C)CCC=C(C)C)c(O)c1C(=O)O [CBGa, cannabigerolic acid] | about 115 °C | found to bind to the SARS-CoV-2 spike protein S1 C-terminal domain | –
CCCCCc1cc2c(c(O)c1C(=O)O)[C@@H]1C=C(C)CC[C@H]1C(C)(C)O2 [THCa, tetrahydrocannabinolic acid] | about 125 °C | – | –
